From article PMC4527243, “Role of electrostatic interactions for ligand recognition and specificity of peptide transporters” (BMC Biology, 2015) come the findings set out here.

Data set [1] addresses T1, YePEPT (Yersinia enterocolitica, UniProt A0A2R9TD79).
T1 construct: gene YEP4_02370; full-length gene in pZUDF21-rbs-3C-10His, C-terminal HRV3C site and deca-His tag, expressed in E. coli BL21(DE3) pLysS; uptake in whole cells
T1 sequence (A0A2R9TD79 1-511): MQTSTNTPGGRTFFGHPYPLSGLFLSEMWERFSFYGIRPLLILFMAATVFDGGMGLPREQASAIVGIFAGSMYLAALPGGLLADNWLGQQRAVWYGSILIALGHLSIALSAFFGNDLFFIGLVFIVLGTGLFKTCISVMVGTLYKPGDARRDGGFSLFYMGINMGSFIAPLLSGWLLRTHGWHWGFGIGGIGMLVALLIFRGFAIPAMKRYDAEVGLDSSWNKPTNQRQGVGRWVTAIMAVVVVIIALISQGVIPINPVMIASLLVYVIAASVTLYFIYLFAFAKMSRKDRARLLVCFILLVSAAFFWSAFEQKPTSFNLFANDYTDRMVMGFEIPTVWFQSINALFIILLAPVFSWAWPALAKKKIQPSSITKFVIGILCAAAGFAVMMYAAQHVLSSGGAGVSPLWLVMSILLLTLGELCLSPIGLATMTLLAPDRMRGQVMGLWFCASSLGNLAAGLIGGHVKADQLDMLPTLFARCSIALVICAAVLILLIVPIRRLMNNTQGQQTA
As to the kind of experiment: competition of [3H]Ala-Ala uptake in E. coli cells. The format is cell-based, Escherichia coli.

Data set [2] addresses T1, YePEPT. As to the kind of experiment: competition of [3H]Ala-Ala uptake in E. coli cells. The format is cell-based. The following applies: 50 μM [3H]Ala-Ala, 2.5 mM competitor, pH 7.5, room temperature.
Substrate in data set [3]: C[C@H](N)C(=O)N[C@@H](C)C(=O)O
As to the kind of experiment: [3H]Ala-Ala uptake saturation in E. coli cells. The class given is cell-based, Yersinia enterocolitica. The following applies: labelled compound, pH 7.5, 150 mM NaCl, room temperature, 100 s.

Where a SMILES comes first, the peptide text is derived from it.

With `C[C@H](NC(=O)[C@@H](N)CC(=O)O)C(=O)O` [Asp-Ala] (H-Asp-Ala-OH), in data set [1], the Ki was about 80 µM.

`C[C@H](NC(=O)[C@@H](N)CCC(=O)O)C(=O)O` [Glu-Ala] (H-Glu-Ala-OH): in data set [1], the Ki was about 50 µM.

With `C[C@H](NC(=O)[C@@H](N)Cc1ccc(O)cc1)C(=O)O` [Tyr-Ala], the “competition of [3H]Ala-Ala uptake in E. coli cells” value in data set [2] was “YePEPT also displayed specificity for Ala-Tyr and Tyr-Ala at comparable levels”.

B1: YePEPT (Yersinia enterocolitica subsp. palearctica YE-P4) (protein)
chain: MQTSTNTPGGRTFFGHPYPLSGLFLSEMWERFSFYGIRPLLILFMAATVFDGGMGLPREQASAIVGIFAGSMYLAALPGGLLADNWLGQQRAVWYGSILIALGHLSIALSAFFGNDLFFIGLVFIVLGTGLFKTCISVMVGTLYKPGDARRDGGFSLFYMGINMGSFIAPLLSGWLLRTHGWHWGFGIGGIGMLVALLIFRGFAIPAMKRYDAEVGLDSSWNKPTNQRQGVGRWVTAIMAVVVVIIALISQGVIPINPVMIASLLVYVIAASVTLYFIYLFAFAKMSRKDRARLLVCFILLVSAAFFWSAFEQKPTSFNLFANDYTDRMVMGFEIPTVWFQSINALFIILLAPVFSWAWPALAKKKIQPSSITKFVIGILCAAAGFAVMMYAAQHVLSSGGAGVSPLWLVMSILLLTLGELCLSPIGLATMTLLAPDRMRGQVMGLWFCASSLGNLAAGLIGGHVKADQLDMLPTLFARCSIALVICAAVLILLIVPIRRLMNNTQGQQTA
notes: full-length gene in pZUDF21-rbs-3C-10His, C-terminal HRV3C site and deca-His tag, expressed in E. coli BL21(DE3) pLysS; uptake in whole cells
Turning to B1, the Km in data set [3] was 200 µM.

Broadly, the Ki is the dissociation constant of the complex between target and ligand, obtained from inhibition or displacement. Higher therefore signals lower affinity. As usually defined, the Km is the concentration of substrate that gives half-maximal velocity.
